Data published in ChEMBL document CHEMBL3875185, “Structure-anticonvulsant activity studies in the group of (E)-N-cinnamoyl aminoalkanols derivatives monosubstituted in phenyl ring with 4-Cl, 4-CH3 or 2-CH3” (Bioorg Med Chem, 2017).
Activity calls are given as the source filed them. No cut-off for these calls is given here.

Legend:
[1] = target: T1, Peroxisome proliferator-activated receptor gamma (Homo sapiens) (UniProt P37231); experiment: Displacement of [3H]rosiglitazone from human recombinant PPAR-gamma receptor expressed in Escherichia coli at 100 uM measured after 120 mins by scintillation counting method relative to control
T1 sequence (whole entry): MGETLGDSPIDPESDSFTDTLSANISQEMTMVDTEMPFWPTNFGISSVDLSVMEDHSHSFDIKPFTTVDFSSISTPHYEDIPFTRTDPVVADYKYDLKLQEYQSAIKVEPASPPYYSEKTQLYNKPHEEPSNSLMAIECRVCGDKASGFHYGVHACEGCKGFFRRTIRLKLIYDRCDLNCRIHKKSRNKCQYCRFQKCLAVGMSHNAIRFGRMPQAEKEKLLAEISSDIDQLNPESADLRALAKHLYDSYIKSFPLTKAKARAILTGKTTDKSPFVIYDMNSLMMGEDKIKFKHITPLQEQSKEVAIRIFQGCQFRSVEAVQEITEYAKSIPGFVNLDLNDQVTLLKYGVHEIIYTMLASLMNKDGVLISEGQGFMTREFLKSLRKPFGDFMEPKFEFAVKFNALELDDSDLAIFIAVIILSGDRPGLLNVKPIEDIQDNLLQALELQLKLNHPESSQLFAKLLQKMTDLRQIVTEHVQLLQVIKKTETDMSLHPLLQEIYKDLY

[2] = system: Mus musculus; experiment: Anticonvulsant activity in ip dosed 6-Hz induced seizure mouse model assessed as restoration of normal activity within 10 secs from stimulation by measuring time to peak effect at 32 mA; type: functional
[3] = species on record: Rattus norvegicus; experiment: Displacement of [35S]dATPaS from rat cerebral cortex P2Y receptor at 100 uM measured after 60 mins by scintillation counting method relative to control
[4] = target: D(3) dopamine receptor (Homo sapiens) (UniProt P35462); experiment: Displacement of [3H]methyl-spiperone from human recombinant dopamine D3 receptor expressed in CHO cells at 100 uM measured after 60 mins by scintillation counting method relative to control; type: cell-based
D(3) dopamine receptor (Homo sapiens), sequence (P35462 whole entry): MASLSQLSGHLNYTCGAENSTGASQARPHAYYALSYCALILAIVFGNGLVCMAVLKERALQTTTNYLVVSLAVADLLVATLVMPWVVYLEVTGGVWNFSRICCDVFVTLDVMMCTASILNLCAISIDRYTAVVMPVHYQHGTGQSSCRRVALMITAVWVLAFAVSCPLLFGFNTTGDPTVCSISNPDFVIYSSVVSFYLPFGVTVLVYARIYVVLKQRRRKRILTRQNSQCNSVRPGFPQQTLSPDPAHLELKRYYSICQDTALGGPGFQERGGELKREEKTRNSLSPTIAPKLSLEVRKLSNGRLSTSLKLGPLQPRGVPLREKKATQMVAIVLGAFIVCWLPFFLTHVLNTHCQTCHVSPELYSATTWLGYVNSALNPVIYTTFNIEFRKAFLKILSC

[5] = system: CHO; experiment: Displacement of [3H]methyl-spiperone from human recombinant dopamine D4.4 receptor expressed in CHO cells at 100 uM measured after 60 mins by scintillation counting method relative to control; type: cell-based
[6] = target: Translocator protein (Rattus norvegicus) (UniProt P16257); experiment: Displacement of [3H]PK 11195 from rat heart peripheral-type benzodiazepine receptor at 100 uM measured after 15 mins by scintillation counting method relative to control
Translocator protein (Rattus norvegicus), sequence (P16257 whole entry, looked up): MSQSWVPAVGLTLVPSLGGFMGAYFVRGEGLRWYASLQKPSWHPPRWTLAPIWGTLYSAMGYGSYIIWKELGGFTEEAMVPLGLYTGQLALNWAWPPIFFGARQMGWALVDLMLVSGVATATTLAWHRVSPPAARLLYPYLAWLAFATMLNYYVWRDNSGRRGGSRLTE

[7] = target: T2, Endothelin receptor type B (Homo sapiens) (UniProt P24530); experiment: Displacement of [125I]endothelin-1 from human recombinant ETB receptor expressed in CHO cells at 100 uM measured after 120 mins by scintillation counting method relative to control; type: cell-based
T2 sequence (whole entry): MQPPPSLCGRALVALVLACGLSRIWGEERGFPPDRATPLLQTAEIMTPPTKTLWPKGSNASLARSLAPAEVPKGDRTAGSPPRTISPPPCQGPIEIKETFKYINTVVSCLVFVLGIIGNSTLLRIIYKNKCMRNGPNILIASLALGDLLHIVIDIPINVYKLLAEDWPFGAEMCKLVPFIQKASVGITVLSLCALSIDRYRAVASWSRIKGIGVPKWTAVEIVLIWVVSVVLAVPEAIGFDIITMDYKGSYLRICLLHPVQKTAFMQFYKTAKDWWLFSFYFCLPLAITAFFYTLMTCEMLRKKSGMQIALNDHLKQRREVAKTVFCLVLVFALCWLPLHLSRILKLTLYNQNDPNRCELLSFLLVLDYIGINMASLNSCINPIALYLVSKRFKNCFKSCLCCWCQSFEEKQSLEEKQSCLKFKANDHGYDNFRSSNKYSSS

[8] = system: Mus musculus; experiment: Anticonvulsant activity in ip dosed pentylenetetrazole induced seizure mouse model assessed as no observable episode of clonic convulsion of at least 5 secs; type: functional
[9] = system: Rattus norvegicus; experiment: Neurotoxicity in ip dosed Sprague-Dawley rat assessed as behavioral change by measuring time to peak effect; type: toxicity, organism-based; conditions: in vivo
[10] = Protection index, ratio of TD50 for neurotoxicity in ip dosed mouse to ED50 for ip dosed 6-Hz induced seizure mouse model at 44 mA; type: toxicity, organism-based; conditions: in vivo, read-out: Ratio TD50/ED50
[11] = Protection index, ratio of TD50 for neurotoxicity in ip dosed Sprague-Dawley rat model to ED50 for ip dosed maximal electroshock induced seizure Sprague-Dawley rat model; type: toxicity, organism-based; conditions: in vivo, read-out: Ratio TD50/ED50
[12] = target: Melatonin receptor type 1A (Homo sapiens) (UniProt P48039); experiment: Displacement of [125I]2-iodomelatonin from human recombinant MT1 receptor expressed in CHO cells at 100 uM measured after 60 mins by scintillation counting method relative to control; type: cell-based
Melatonin receptor type 1A (Homo sapiens), sequence (P48039 whole entry): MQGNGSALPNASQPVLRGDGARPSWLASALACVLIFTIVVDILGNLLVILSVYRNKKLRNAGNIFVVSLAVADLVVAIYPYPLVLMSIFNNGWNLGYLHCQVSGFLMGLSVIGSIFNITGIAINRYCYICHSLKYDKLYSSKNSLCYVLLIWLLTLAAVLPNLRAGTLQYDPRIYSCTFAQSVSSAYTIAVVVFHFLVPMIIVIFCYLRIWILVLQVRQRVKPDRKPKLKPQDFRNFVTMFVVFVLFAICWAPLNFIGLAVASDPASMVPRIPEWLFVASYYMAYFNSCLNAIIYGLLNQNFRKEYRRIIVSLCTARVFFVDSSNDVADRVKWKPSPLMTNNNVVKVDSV

[13] = target: Nociceptin receptor (Homo sapiens) (UniProt P41146); experiment: Displacement of [3H]nociceptin from human recombinant NOP receptor expressed in HEK293 cells at 100 uM measured after 60 mins by scintillation counting method relative to control; type: cell-based
Nociceptin receptor (Homo sapiens), sequence (P41146 whole entry): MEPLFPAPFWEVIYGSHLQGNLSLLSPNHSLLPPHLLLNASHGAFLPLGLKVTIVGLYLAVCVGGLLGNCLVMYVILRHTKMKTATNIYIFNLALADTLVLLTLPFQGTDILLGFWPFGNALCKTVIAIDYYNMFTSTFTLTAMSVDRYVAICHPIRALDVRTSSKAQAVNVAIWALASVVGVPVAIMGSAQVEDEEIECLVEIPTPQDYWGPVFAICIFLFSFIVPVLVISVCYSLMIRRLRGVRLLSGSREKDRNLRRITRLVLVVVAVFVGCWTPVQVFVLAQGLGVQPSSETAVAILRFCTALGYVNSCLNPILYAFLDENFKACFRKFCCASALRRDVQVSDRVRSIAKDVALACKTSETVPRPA

[14] = target: T3, Substance-K receptor (Homo sapiens) (UniProt P21452); experiment: Displacement of [125I]NKA from human recombinant NK2 receptor expressed in CHO cells at 100 uM measured after 60 mins by scintillation counting method relative to control; type: cell-based
T3 sequence (whole entry): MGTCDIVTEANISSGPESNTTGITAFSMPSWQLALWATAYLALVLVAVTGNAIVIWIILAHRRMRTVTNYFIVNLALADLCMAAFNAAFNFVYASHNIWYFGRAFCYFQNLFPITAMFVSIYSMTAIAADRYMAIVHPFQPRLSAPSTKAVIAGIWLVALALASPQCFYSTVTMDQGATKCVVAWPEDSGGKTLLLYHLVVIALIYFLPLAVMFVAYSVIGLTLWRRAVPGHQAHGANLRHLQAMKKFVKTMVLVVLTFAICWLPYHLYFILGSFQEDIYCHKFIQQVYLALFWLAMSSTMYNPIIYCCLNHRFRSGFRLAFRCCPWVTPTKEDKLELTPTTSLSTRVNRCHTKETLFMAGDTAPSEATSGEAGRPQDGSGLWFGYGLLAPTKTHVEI

[15] = system: Mus musculus; experiment: Neurotoxicity in ip dosed mouse assessed as induction of motor impairment by measuring time to peak effect by rotarod method; type: toxicity, organism-based; conditions: in vivo
[16] = system: Mus musculus; experiment: Anticonvulsant activity in pentylenetetrazole induced seizure mouse model assessed as no observable episode of clonic convulsion of at least 5 secs at 300 mg/kg, ip measured at 0.5 hrs post dose; type: functional, organism-based
[17] = system: Rattus norvegicus; experiment: Neurotoxicity in Sprague-Dawley rat assessed as behavioral change at 30 mg/kg, po measured at 4 hrs post dose; type: toxicity, organism-based; conditions: in vivo
[18] = target: Muscarinic acetylcholine receptor M3 (Homo sapiens) (UniProt P20309); experiment: Displacement of [3H]4-DAMP from human recombinant M3 receptor expressed in CHO cells at 100 uM measured after 60 mins by scintillation counting method relative to control; type: cell-based
Muscarinic acetylcholine receptor M3 (Homo sapiens), sequence (P20309 whole entry, looked up): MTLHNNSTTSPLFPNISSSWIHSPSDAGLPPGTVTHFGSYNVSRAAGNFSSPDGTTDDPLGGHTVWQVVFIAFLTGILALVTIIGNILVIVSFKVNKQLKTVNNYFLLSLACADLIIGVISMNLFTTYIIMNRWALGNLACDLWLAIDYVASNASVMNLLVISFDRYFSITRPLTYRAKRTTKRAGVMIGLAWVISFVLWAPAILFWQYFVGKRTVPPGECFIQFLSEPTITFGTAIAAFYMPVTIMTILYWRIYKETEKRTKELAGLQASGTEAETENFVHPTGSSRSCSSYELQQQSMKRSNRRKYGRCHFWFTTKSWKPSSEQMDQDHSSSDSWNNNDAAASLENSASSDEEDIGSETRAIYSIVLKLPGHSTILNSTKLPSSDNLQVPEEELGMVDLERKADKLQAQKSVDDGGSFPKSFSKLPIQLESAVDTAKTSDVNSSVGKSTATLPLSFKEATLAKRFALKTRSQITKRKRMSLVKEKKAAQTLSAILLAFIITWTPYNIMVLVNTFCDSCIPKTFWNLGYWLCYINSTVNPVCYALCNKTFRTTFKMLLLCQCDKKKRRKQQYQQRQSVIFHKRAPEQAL

[19] = Protection index, ratio of TD50 for neurotoxicity in ip dosed mouse to ED50 for ip dosed pentylenetetrazole induced seizure mouse model; type: toxicity, organism-based; conditions: in vivo, read-out: Ratio TD50/ED50

SMILES | inhibition [1] [%] | Time [2] [h] | inhibition [3] [%] | inhibition [4] [%] | inhibition [5] [%] | inhibition [6] [%] | inhibition [7] [%] | ED50 [8] [mg/kg] | Time [9] [h] | selectivity ratio [10] | selectivity ratio [11] | inhibition [12] [%] | inhibition [13] [%] | inhibition [14] [%] | Time [15] [h] | Activity [16] | Activity [17] | inhibition [18] [%] | selectivity ratio [19]
Cc1ccccc1/C=C/C(=O)N[C@@H](C)CO | 3 | 0.25 | -6.1 | 7.2 | 23.2 | 75.8 | -8.2 | 58.4 | 0.5 | 3.55 | 6.3 | 14.5 | 2.2 | 1.2 | 0.5 | Active | Non-Toxic | -2 | 2.57
CC(O)CNC(=O)/C=C/c1ccc(Cl)cc1 (configuration not stated) | 2.3 | 0.5 | 15 | 17.4 | 28.2 | 8.1 | -4.6 | 102 | 0.5 | 3.51 | 1.66 | 10.6 | 1.7 | 19.5 | 0.25 | Active | Non-Toxic | 2.9 | 1.76
CCC(CO)NC(=O)/C=C/c1ccc(Cl)cc1 (configuration not stated) | 26.7 | 0.25 | 18.1 | 18.2 | 30.6 | 53 | -10 | 90.3 | 1 | 2.12 | 3.74 | 4.3 | -4.4 | 48.3 | 0.25 | Active | Non-Toxic | 1.5 | 2.18
